What was measured:
Tyrosinase = target: T1, Tyrosinase (Agaricus bisporus, UniProt O42713)
T1 sequence (O42713 whole entry): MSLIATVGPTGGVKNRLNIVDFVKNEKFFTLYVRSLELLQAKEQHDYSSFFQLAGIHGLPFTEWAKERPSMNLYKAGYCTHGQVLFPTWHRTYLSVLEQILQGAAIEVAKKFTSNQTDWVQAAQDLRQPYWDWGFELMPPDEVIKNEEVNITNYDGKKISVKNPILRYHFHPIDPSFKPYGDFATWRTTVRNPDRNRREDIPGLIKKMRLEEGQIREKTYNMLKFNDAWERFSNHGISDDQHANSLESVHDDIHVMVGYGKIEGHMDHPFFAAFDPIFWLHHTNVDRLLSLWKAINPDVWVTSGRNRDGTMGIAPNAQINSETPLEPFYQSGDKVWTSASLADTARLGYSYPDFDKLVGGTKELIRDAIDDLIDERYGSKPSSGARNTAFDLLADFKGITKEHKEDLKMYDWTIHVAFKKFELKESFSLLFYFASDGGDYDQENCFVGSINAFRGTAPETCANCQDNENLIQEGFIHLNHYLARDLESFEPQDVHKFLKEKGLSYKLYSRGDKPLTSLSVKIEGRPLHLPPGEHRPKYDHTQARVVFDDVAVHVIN
Description: Inhibition of mushroom tyrosinase activity using L-tyrosine as substrate by spectrometric analysis

B16 [1] = assay: cells; conditions: Mus musculus, B16, 72 h
Description: Inhibition of alpha-MSH -stimulated melanogenesis in mouse B16 cells assessed as melanin release after 72 hrs by spectrometric analysis

B16 [2] = assay: cells; conditions: Mus musculus, B16, 72 h, read-out: INH
Description: Inhibition of alpha-MSH -stimulated melanogenesis in mouse B16 cells assessed as melanin release at 10 uM after 72 hrs by spectrometric analysis

SMILES	IC50 (Tyrosinase) [µM]	IC50 (B16 [1]) [µM]	inhibition at 10 µM (B16 [2]) [%]
Cc1cccc(NC(N)=S)c1	0.6		
CC(C)(C)c1ccccc1NC(N)=S	> 100		
S=C(Nc1ccccc1)NC1CCCCC1	> 100	2.4	> 100
COc1ccc(NC(S)=Nc2ccccc2)cc1	> 100	8.2	59
CNC(=S)Nc1ccccc1	> 100	35	30
S=C(NCCc1ccccc1)Nc1ccccc1	> 100	2.2	> 100
Cc1ccccc1NC(N)=S	0.84		
NC(=S)NCCc1ccccc1	> 100		
Cc1ccc(NC(=S)Nc2ccccc2)cc1	> 100	6.3	79

Further lines, with some results ahead:

IC50 (Tyrosinase) [µM]	IC50 (B16 [1]) [µM]	SMILES	inhibition at 10 µM (B16 [2]) [%]
0.8		CCc1ccc(NC(N)=S)cc1	
1.4		Cc1ccc(NC(N)=S)cc1	
> 100		S=C1NCc2ccccc2N1	
> 100		Cc1ccc2c(c1)CN(CCc1ccccc1)C(=S)N2	
64.8		NC(=S)NCCCc1ccccc1	
25.4		NC(=S)NCc1ccccc1	
> 100	19.6	CC(C)N(C(=S)Nc1ccccc1)C(C)C	30
> 100	20.7	Oc1ccc(N/C(S)=N/c2ccccc2)cc1	24
> 100	4.7	S=C(NCc1ccccc1)Nc1ccccc1	91
> 100	3.4	S=C(Nc1ccccc1)Nc1ccc(Cl)cc1	> 100
> 100	1.8	S=C(NCCCc1ccccc1)Nc1ccccc1	> 100
1.7		CC(C)(C)c1ccc(NC(N)=S)cc1	
27.1		CCc1ccccc1NC(N)=S	

Reference: ChEMBL document CHEMBL1909585 (Bioorg Med Chem Lett, 2011)
